Reference: ChEMBL document CHEMBL1201862, “PubChem BioAssay data set” (2004)
Each block holds one compound with its values, some of them ahead of it. Active and inactive are the calls of the source.

What was measured:
[1] = molecular target: Protein disulfide-isomerase (Homo sapiens, UniProt P07237); test: PDI inhibitors, insulin aggregation turbidity, dose response, biochemical, absorbance, cherry-picked samples (AID 602350); format: functional
[2] = molecular target: ALK tyrosine kinase receptor (Homo sapiens, UniProt Q9UM73); format: functional;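 further: ALK tested as one member of a kinase panel screen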
[3] = molecular target: Serine/threonine-protein kinase D3 (Homo sapiens, UniProt O94806); format: functional;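 further: determined within a kinase panel screen, with PRKCN as the panel member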
[4] = molecular target: Tyrosine-protein kinase Lck (Homo sapiens, UniProt P06239); format: functional;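 further: lck was assayed as one member of a kinase panel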
[5] = molecular target: Death-associated protein kinase 3 (Homo sapiens, UniProt O43293); format: functional;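 further: measured as one member of a kinome-wide profiling panel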
Chain of Death-associated protein kinase 3 (O43293 whole entry): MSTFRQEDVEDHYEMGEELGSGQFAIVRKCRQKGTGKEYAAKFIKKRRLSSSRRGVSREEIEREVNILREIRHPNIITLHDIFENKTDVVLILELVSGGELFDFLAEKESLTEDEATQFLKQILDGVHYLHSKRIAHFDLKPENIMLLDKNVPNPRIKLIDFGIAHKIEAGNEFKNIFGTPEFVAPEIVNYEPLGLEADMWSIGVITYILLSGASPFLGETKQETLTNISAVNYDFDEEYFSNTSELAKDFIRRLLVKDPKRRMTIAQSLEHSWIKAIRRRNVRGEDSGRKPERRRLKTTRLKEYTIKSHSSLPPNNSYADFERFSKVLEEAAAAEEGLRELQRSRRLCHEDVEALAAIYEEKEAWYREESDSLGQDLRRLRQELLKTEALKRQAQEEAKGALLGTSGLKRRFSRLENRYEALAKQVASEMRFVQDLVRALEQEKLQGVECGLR

[6] = molecular target: Activin receptor type-1 (Homo sapiens, UniProt Q04771); test: Navigating the Kinome. Panel member name: ACVR1; format: functional
[7] = molecular target: Mitogen-activated protein kinase 8 (Homo sapiens, UniProt P45983); format: functional;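 further: value comes from one member of a kinome-wide kinase profiling panel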
[8] = molecular target: Serine/threonine-protein kinase pim-1 (Homo sapiens, UniProt P11309); format: functional
[9] = molecular target: Tyrosine-protein kinase BTK (Homo sapiens, UniProt Q06187); format: functional
[10] = molecular target: Serine/threonine-protein kinase PAK 4 (Homo sapiens, UniProt O96013); format: functional;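 further: value obtained within a kinome profiling panel in which PAK4 was one of the panel members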
[11] = molecular target: Fibroblast growth factor receptor 1 (Homo sapiens, UniProt P11362); format: functional
[12] = molecular target: Casein kinase I isoform alpha (Homo sapiens, UniProt P48729); format: functional
[13] = molecular target: Tyrosine-protein kinase JAK3 (Homo sapiens, UniProt P52333); format: functional
Chain of Tyrosine-protein kinase JAK3 (P52333 whole entry): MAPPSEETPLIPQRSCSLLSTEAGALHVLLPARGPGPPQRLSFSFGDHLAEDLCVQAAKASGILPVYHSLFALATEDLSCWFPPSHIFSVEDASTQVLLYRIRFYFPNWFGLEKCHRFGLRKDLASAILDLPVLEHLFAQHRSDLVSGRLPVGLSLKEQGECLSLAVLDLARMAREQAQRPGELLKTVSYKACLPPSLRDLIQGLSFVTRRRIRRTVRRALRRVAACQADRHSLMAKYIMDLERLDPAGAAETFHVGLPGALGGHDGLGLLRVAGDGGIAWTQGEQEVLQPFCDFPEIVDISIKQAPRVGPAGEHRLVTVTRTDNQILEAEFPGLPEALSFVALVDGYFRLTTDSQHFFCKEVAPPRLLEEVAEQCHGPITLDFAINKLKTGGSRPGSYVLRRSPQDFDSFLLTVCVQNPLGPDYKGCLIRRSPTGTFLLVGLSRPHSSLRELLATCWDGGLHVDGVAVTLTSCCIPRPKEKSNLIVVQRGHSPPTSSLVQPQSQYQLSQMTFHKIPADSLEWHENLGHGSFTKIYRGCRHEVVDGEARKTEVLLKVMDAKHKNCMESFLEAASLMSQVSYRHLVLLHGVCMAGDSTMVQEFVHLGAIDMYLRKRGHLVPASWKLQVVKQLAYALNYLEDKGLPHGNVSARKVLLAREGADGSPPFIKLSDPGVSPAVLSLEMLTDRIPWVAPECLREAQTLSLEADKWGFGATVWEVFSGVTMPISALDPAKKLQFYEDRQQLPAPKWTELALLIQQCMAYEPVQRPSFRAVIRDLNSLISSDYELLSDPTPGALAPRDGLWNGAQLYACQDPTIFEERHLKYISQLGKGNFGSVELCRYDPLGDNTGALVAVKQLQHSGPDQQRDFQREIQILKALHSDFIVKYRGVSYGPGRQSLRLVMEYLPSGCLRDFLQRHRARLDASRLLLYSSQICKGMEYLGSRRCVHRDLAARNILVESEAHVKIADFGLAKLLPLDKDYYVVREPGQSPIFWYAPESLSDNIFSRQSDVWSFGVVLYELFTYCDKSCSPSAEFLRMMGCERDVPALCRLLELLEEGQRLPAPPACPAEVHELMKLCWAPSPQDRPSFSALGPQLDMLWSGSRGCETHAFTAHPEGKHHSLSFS

[14] = molecular target: Serine/threonine-protein kinase N2 (Homo sapiens, UniProt Q16513); format: functional
[15] = molecular target: Serine/threonine-protein kinase TAO1 (Homo sapiens, UniProt Q7L7X3); format: functional
[16] = molecular target: Glycogen synthase kinase-3 alpha (Homo sapiens, UniProt P49840); format: functional;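 further: GSK3A result taken from a broad kinome-wide kinase panel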
[17] = molecular target: Tyrosine-protein kinase ABL1 (Homo sapiens, UniProt P00519); format: functional
[18] = molecular target: G protein-coupled receptor kinase 5 (Homo sapiens, UniProt P34947); test: Navigating the Kinome. Panel member name: GPRK5; format: functional
Chain of G protein-coupled receptor kinase 5 (P34947 whole entry): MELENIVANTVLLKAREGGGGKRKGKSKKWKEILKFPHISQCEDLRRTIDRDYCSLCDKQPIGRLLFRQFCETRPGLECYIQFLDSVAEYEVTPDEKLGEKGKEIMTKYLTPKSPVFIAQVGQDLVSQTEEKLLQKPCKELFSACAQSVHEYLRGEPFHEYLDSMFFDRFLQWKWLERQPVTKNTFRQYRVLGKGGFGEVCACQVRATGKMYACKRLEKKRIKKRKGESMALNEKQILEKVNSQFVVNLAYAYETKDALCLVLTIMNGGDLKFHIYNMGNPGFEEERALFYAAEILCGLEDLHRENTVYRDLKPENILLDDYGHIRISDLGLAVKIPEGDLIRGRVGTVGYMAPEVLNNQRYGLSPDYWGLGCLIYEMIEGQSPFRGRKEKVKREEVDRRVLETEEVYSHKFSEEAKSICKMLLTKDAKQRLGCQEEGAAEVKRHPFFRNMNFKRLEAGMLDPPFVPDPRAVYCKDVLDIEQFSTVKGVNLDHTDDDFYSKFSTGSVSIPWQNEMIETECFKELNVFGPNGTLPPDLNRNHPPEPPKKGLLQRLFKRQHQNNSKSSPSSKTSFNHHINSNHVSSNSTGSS

[19] = molecular target: Focal adhesion kinase 1 (Homo sapiens, UniProt Q05397); format: functional;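 further: measured as one member of a kinome panel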
Chain of Focal adhesion kinase 1 (Q05397 whole entry): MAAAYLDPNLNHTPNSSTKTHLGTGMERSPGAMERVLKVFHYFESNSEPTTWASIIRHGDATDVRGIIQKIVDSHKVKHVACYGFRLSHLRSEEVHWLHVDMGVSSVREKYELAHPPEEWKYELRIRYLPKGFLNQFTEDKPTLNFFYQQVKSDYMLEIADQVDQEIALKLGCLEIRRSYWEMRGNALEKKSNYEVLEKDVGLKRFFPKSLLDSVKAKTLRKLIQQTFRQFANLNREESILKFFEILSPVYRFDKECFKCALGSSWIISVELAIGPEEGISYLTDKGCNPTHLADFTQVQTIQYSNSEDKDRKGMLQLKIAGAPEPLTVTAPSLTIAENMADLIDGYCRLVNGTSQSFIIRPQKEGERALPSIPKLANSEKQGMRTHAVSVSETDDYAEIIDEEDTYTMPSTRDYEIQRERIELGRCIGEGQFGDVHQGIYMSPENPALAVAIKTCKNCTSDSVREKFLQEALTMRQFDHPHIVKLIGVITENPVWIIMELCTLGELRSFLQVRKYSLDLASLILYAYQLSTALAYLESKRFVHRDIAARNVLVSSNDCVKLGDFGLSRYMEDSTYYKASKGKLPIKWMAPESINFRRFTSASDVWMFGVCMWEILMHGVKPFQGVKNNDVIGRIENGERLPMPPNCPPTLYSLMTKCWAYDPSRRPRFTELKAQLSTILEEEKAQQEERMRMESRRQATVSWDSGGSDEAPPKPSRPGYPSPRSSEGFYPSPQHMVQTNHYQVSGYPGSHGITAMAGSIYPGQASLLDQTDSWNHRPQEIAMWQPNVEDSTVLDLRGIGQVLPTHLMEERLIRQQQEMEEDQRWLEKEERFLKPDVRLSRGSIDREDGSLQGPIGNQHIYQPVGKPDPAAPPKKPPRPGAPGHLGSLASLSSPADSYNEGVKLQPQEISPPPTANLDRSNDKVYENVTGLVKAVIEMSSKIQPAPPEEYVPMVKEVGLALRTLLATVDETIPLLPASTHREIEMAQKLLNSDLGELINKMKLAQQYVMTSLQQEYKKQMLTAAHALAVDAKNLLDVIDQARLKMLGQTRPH

[20] = molecular target: Tyrosine-protein kinase Fyn (Homo sapiens, UniProt P06241); format: functional
[21] = molecular target: Cyclin-dependent kinase 8 (Homo sapiens, UniProt P49336); test: Navigating the Kinome. Panel member name: CDK8; format: functional
[22] = molecular target: Mitogen-activated protein kinase kinase kinase kinase 4 (Homo sapiens, UniProt O95819); format: functional
[23] = molecular target: Calcium/calmodulin-dependent protein kinase type II subunit alpha (Homo sapiens, UniProt Q9UQM7); test: Navigating the Kinome. Panel member name: CAMK2A; format: functional
[24] = test system: CHO-K1; test: (§1) Counterscreen for antagonists of the orexin 1 receptor (OX1R; HCRTR1): Homogeneous time resolved fluorescence (HTRF)-based cell-based dose response assay to identify antagonists of the parental CHO-K1 cell line. [Related pubchem assays (depositor defined):AID434989, AID435008, AID463079, AID485270, AID492963, AID492964, AID492965, AID493232, AID504699, AID504701]; format: functional; details: Cricetulus griseus
[25] = as §1, with “Fluorescence-based” for “Homogeneous time resolved fluorescence (HTRF)-based”, “cell-based high throughput” for “cell-based”, “CHO” for “CHO-K1”; format: functional
[26] = molecular target: Neurotensin receptor type 1 (Homo sapiens, UniProt P30989); format: functional;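 further: Image-based confirmatory dose-response assay measuring agonist activity at NTR1; NTR1-expressing U2OS osteosarcoma cells imaged for beta-arrestin GFP spot formation; agonist potency where compounds increase beta-arrestin recruitment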
Chain of Neurotensin receptor type 1 (P30989 whole entry): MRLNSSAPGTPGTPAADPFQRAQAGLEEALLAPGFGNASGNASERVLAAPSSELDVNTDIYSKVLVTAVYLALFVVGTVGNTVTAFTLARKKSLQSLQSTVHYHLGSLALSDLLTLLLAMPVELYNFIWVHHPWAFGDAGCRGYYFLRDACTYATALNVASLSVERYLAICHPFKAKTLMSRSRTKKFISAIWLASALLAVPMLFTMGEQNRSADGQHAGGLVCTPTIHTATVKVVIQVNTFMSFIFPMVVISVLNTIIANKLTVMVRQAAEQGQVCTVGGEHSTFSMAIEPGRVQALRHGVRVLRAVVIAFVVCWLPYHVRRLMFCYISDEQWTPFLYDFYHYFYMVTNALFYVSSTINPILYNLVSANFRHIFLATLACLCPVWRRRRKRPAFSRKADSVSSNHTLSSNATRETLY

[27] = molecular target: T1, Orexin/Hypocretin receptor type 1 (Homo sapiens, UniProt O43613); test: Homogeneous Time Resolved Fluorescence (HTRF)-based cell-based high throughput dose response assay for antagonists of the orexin 1 receptor (OX1R; HCRTR1). [Related pubchem assays (depositor defined):AID434989, AID435008, AID463079, AID485270, AID492963, AID492964, AID492965, AID493232, AID504717, AID504718]; format: functional
T1 sequence (O43613 whole entry): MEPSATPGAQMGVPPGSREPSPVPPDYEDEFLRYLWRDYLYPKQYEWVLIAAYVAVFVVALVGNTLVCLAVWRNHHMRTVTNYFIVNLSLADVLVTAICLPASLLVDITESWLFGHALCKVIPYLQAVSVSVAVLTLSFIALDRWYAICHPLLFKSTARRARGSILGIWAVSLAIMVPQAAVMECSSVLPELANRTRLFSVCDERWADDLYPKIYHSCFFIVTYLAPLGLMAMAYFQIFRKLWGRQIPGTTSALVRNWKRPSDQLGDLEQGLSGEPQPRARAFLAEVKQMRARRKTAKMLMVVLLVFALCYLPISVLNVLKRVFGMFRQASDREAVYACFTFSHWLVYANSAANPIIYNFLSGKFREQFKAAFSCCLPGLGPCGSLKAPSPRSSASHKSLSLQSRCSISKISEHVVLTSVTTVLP

[28] = molecular target: T1, Orexin/Hypocretin receptor type 1; test: Fluorescence-based cell-based high throughput dose response assay for antagonists of the orexin 1 receptor (OX1R; HCRTR1). [Related pubchem assays (depositor defined):AID434989, AID435008, AID463079, AID485270, AID492963, AID492964, AID492965, AID493232, AID504717, AID504718]; format: functional
[29] = molecular target: T2, Microphthalmia-associated transcription factor (Homo sapiens, UniProt O75030); test: TRPM1 promoter luciferase signal decrease, dose response, MITF inhibitor project, cell-based, SK-MEL-5, cherry-picked, set 3 (AID 493073); format: functional
T2 sequence (O75030 whole entry): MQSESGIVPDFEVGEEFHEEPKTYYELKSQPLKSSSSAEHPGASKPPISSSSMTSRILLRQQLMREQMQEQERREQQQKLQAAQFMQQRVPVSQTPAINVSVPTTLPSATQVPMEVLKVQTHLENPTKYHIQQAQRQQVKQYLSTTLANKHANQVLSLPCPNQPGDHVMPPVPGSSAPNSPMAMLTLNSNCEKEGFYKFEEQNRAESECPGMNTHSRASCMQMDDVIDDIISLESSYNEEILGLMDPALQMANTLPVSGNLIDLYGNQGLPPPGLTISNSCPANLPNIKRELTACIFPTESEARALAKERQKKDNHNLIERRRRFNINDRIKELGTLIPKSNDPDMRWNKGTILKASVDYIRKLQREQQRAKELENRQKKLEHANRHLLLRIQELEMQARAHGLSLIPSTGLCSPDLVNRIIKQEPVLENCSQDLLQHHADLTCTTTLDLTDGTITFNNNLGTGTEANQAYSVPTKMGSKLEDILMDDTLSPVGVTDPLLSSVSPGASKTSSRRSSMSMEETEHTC

[30] = molecular target: T3, Orexin receptor type 2 (Homo sapiens, UniProt O43614); test: Counterscreen assay for antagonists of the orexin 1 receptor (OX1R; HCRTR1): Fluorescence-based cell-based dose response assay for antagonists of the orexin 2 receptor (OX2R; HCRTR2), run by assay provider.; format: functional
T3 sequence (O43614 whole entry): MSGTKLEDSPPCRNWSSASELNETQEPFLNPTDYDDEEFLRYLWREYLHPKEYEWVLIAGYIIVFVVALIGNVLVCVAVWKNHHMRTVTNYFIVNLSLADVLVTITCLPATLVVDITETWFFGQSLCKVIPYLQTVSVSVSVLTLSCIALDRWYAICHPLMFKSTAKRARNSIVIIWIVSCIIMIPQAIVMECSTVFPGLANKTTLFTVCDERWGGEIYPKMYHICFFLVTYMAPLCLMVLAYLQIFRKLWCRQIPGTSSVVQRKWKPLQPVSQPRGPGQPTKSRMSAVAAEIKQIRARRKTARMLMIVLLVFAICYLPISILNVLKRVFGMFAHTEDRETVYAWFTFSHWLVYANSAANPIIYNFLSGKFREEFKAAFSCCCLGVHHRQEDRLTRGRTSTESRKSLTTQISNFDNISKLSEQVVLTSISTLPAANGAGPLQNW

[31] = molecular target: T3, Orexin receptor type 2; test: Counterscreen assay for antagonists of the orexin 1 receptor (OX1R; HCRTR1): Homogeneous Time Resolved Fluorescence (HTRF)-based cell-based dose response assay for antagonists of the orexin 2 receptor (OX2R; HCRTR2), run by assay provider.; format: functional
[32] = A549 cell cytotoxicity, dose response, cytotoxicity control, plate reader, cherry-pick, antagonist series (AID 743412); format: functional, cell-based
[33] = HepG2 cell cytotoxicity, dose response, cytotoxicity control, plate reader, cherry-pick, antagonist series (AID 743416); format: functional, cell-based
[34] = LGR2 antagonists, dose response, cell-based, HEK293, CRE-luciferase reporter, cherry pick, set 2 (AID 743343); format: functional;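 further: transfected cells were stimulated with diluted bursicon conditioned medium after compound addition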
[35] = MC4R antagonists, dose response, counter-screen for LGR2 antagonist project, cell-based, plate reader, cherry pick (AID 743444); format: functional;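 further: transfected HEK 293 cells stimulated with alpha-MSH peptide; potency of inhibitors of the alpha-MSH evoked signal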
[36] = HEK293 cell cytotoxicity, dose response, cytotoxicity control, plate reader, cherry-picked samples (AID 743446); format: functional, cell-based
[37] = molecular target: Sphingosine 1-phosphate receptor 1 (Homo sapiens, UniProt P21453); test: Late-stage fluorescence-based dose-response cell-based counterscreen assay to identify agonists of the Sphingosine 1-Phosphate Receptor 4 (S1P4): Sphingosine 1-Phosphate Receptor 1 (S1P1) agonist assay Set 2.; format: functional
[38] = molecular target: Sphingosine 1-phosphate receptor 5 (Homo sapiens, UniProt Q9H228); test: S1P5 receptor agonists, human, late-stage follow-up, counter-screen for S1P4 agonist project, cell-based, fluorescence, set 2 (AID 504867); format: functional
[39] = molecular target: Sphingosine 1-phosphate receptor 3 (Homo sapiens, UniProt Q99500); test: Late-stage fluorescence-based dose-response cell-based counterscreen assay to identify agonists of the Sphingosine 1-Phosphate Receptor 4 (S1P4): Sphingosine 1-Phosphate Receptor 3 (S1P3) agonist assay Set 2.; format: functional
Chain of Sphingosine 1-phosphate receptor 3 (Q99500 whole entry): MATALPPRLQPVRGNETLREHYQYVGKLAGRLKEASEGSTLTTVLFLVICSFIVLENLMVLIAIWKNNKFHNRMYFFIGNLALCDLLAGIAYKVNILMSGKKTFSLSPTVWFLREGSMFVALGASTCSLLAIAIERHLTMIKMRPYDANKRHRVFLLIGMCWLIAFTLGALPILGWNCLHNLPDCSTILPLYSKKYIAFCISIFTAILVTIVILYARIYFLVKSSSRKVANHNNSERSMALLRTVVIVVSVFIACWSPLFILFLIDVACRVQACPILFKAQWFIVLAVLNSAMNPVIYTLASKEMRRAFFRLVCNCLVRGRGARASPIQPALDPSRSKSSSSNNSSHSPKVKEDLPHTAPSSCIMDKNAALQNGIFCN

[40] = molecular target: Sphingosine 1-phosphate receptor 2 (Homo sapiens, UniProt O95136); test: S1P2 receptor agonists, human, late-stage follow-up, counter-screen for S1P4 agonist project, cell-based, fluorescence, set 2 (AID 504873); format: functional

AC50 [1]: 19.5 µM (active)
SMILES: O=C(CCC1CCCCC1)NCCN1C2=NC[C@H](Cc3ccc(O)cc3)N2C[C@H]1Cc1ccc(O)cc1

Ki [2]: > 6.31 µM (inactive)
Ki [3]: > 3.98 µM (inactive)
Ki [4]: > 6.31 µM (inactive)
Ki [6]: > 3.98 µM (inactive)
Ki [7]: > 5.01 µM (inactive)
Ki [8]: > 6.31 µM (inactive)
Ki [9]: > 6.31 µM (inactive)
Ki [10]: > 5.01 µM (inactive)
Ki [11]: > 3.98 µM (inactive)
Ki [12]: > 3.98 µM (inactive)
Ki [13]: > 5.01 µM (inactive)
Ki [14]: > 5.01 µM (inactive)
Ki [15]: > 6.31 µM (inactive)
Ki [16]: > 3.98 µM (inactive)
Ki [17]: > 3.98 µM (inactive)
Ki [18]: > 3.98 µM (inactive)
Ki [19]: > 6.31 µM (inactive)
Ki [20]: > 6.31 µM (inactive)
Ki [21]: > 3.98 µM (inactive)
Ki [22]: > 5.01 µM (inactive)
Ki [23]: > 7.94 µM (inactive)
SMILES: Cc1cc(=O)[nH]c2[nH]nc(-c3cccc(C(F)(F)F)c3)c12
Ki [5]: > 5.01 µM (inactive)

SMILES: CN(C)S(=O)(=O)c1ccc(-c2csc(N/N=C/c3ccco3)n2)cc1
IC50 [24]: > 66.2 µM (inactive)
IC50 [25]: > 49.8 µM (inactive)
EC50 [26]: 8.51 µM (active)
IC50 [27]: 7.29 µM (active)
IC50 [28]: > 49.8 µM (inactive)
AC50 [29]: 3.9 µM (active)
IC50 [30]: > 88.8 µM (inactive)
IC50 [31]: > 50 µM (inactive)
AC50 [32]: 40.7 µM (active)
AC50 [33]: 5.32 µM (active)
AC50 [34]: 7.23 µM (active)
AC50 [35]: 7.48 µM (active)
AC50 [36]: 11 µM (active)

EC50 [37]: 3.01 µM (active)
EC50 [38]: 0.0336 µM (active)
EC50 [39]: > 25 µM (inactive)
EC50 [40]: > 25 µM (inactive)
SMILES: C/N=C1/S/C(=C/c2cc(C)n(-c3ccc(Cl)cc3F)c2C)C(=O)N1C
